Measurements published in US20230293407A1, “Compositions Comprising (Bio)-Alkanediols with Antimicrobials for Product Protection” (Symrise AG, priority 2020, published 2023).

How the values were obtained:
Experiment in all cases: preservation efficacy test (PET), European Pharmacopoeia 5.1.3
Type in all cases: cell-based
Pseudomonas aeruginosa = settings: for count at 2 days / count at 7 days / count at 14 days / count at 28 days: PA, use concentration in label
Staphylococcus aureus = settings: for count at 7 days / count at 14 days / count at 28 days / count at 2 days: SA, use concentration in label
Escherichia coli = settings: for count at 2 days / count at 7 days / count at 14 days / count at 28 days: EC, use concentration in label
Candida albicans = settings: for count at 2 days / count at 7 days / count at 14 days / count at 28 days: CA, use concentration in label
Aspergillus brasiliensis = settings: for count at 2 days / count at 7 days / count at 14 days / count at 28 days: AB, use concentration in label; for count at 2 days: 2 days after inoculation
[1] = 2 days after inoculation, substance at given % in test formulation
[2] = 7 days after inoculation, substance at given % in test formulation
[3] = 14 days after inoculation, substance at given % in test formulation
[4] = 28 days after inoculation, substance at given % in test formulation

Compound | count at 2 days (Pseudomonas aeruginosa; 2 days after inoculation) | count at 7 days (Pseudomonas aeruginosa; 7 days after inoculation) | count at 14 days (Pseudomonas aeruginosa; 14 days after inoculation) | count at 28 days (Pseudomonas aeruginosa; 28 days after inoculation) | count at 7 days (Staphylococcus aureus; 7 days after inoculation) | count at 14 days (Staphylococcus aureus; 14 days after inoculation) | count at 28 days (Staphylococcus aureus; 28 days after inoculation) | count at 2 days (Escherichia coli; 2 days after inoculation) | count at 7 days (Escherichia coli; 7 days after inoculation) | count at 14 days (Escherichia coli; 14 days after inoculation) | count at 28 days (Escherichia coli; 28 days after inoculation) | count at 2 days (Candida albicans; 2 days after inoculation) | count at 7 days (Candida albicans; 7 days after inoculation) | count at 14 days (Candida albicans; 14 days after inoculation) | count at 28 days (Candida albicans; 28 days after inoculation) | count at 2 days (Aspergillus brasiliensis) | count at 7 days (Aspergillus brasiliensis; 7 days after inoculation) | count at 14 days (Aspergillus brasiliensis; 14 days after inoculation) | count at 28 days (Aspergillus brasiliensis; 28 days after inoculation) | count at 2 days (Staphylococcus aureus; 2 days after inoculation) | further results
CCCCC(O)C(C)O (centres unmarked) [0.4% 2,3-heptanediol] | 1 | 1 | 1 | 1 | 12.000 | 1 | 1 | 320.000 | 2.400 | 1 | 1 | 640.000 | 350.000 | 130.000 | 11.000 | 790.000 | 930.000 | 500.000 | 390.000 | – | –
O=P(O)(O)O[C@H]1[C@H](OP(=O)(O)O)[C@@H](OP(=O)(O)O)[C@H](OP(=O)(O)O)[C@@H](OP(=O)(O)O)[C@H]1OP(=O)(O)O [0.4% phytic acid] | 1 | 1 | 1 | 1 | 1 | 1 | 1 | 1 | 1 | 1 | 1 | 640.000 | 550.000 | 570.000 | 520.000 | 510.000 | 290.000 | 180.000 | 150.000 | 1 | –
CC(C)=CCC[C@](C)(O)[C@@H]1CC=C(C)CC1 [0.3% Dragosantol 100] | – | – | – | – | – | – | – | – | – | – | – | – | – | – | – | – | – | – | – | – | PA germ count, 2 days (Pseudomonas aeruginosa; [1]): 1; PA germ count, 7 days (Pseudomonas aeruginosa; [2]): 1; PA germ count, 14 days (Pseudomonas aeruginosa; [3]): 1; PA germ count, 28 days (Pseudomonas aeruginosa; [4]): 1; SA germ count, 2 days (Staphylococcus aureus; [1]): 370.000; SA germ count, 7 days (Staphylococcus aureus; [2]): 290; SA germ count, 14 days (Staphylococcus aureus; [3]): 1; SA germ count, 28 days (Staphylococcus aureus; [4]): 1; EC germ count, 2 days (Escherichia coli; [1]): 120.000; EC germ count, 7 days (Escherichia coli; [2]): 200; EC germ count, 14 days (Escherichia coli; [3]): 1; EC germ count, 28 days (Escherichia coli; [4]): 1; CA germ count, 2 days (Candida albicans; [1]): 800.000; CA germ count, 7 days (Candida albicans; [2]): 920.000; CA germ count, 14 days (Candida albicans; [3]): 28.000; CA germ count, 28 days (Candida albicans; [4]): 58.000; AB germ count, 7 days (Aspergillus brasiliensis; [2]): 880.000; AB germ count, 14 days (Aspergillus brasiliensis; [3]): 620.000; AB germ count, 28 days (Aspergillus brasiliensis; [4]): 660.000
O=C([O-])CN(CCN(CC(=O)O)CC(=O)O)CC(=O)[O-].[Na+].[Na+] [0.2 % Disodium EDTA] | 1 | 1 | 1 | 1 | 49.000 | 49.000 | 2.500 | 330.000 | 85.000 | 85.000 | 1.800 | – | – | – | 810.000 | 990.000 | 590.000 | 590.000 | 330.000 | 530.000 | –
CC(=O)CCc1ccc(OCCO)cc1 [0.4% Hydroxyethoxyphenyl Butanone] | 1 | 1 | 1 | 1 | 1 | 1 | 1 | 200 | 1 | 1 | 1 | 95.000 | 1 | 490 | 450 | – | – | – | 810.000 | 39.000 | –
CCCCCC(O)CO (centres unmarked) [0.2 % 1,2-heptanediol] | 1 | 1 | 1 | 1 | 2.300 | 1 | 1 | 53.000 | 1.100 | 1 | 1 | – | – | – | 420.000 | 790.000 | 630.000 | 230.000 | 220.000 | 84.000 | –
OCCCO [0.8% 1,3-propanediol] | 290 | 200 | 180 | 1 | 58.000 | 820 | 1 | 350.000 | 74.000 | 4.100 | 1 | – | 650.000 | 630.000 | 1 | 900.000 | 650.000 | 270.000 | 380 | 180.000 | –
